Test results as given in patent publication US20200024278A1, “COMPOSITION COMPRISING ANTIBIOTIC COMPOUND AND AN HETEROCYCLIC COMPOUND AND THEIR USE IN PREVENTING OR TREATING BACTERIAL INFECTIONS” (MUTABILIS, priority 2016, published 2020).

Columns and labels:
Assay in all cases: MIC, broth microdilution (CLSI), substance alone or ATB combined with compound at 4 or 8 μg/mL
Type in all cases: cell-based, A. baumannii
Settings in all cases: Acinetobacter baumannii, substance alone, read-out: MIC
[1] = test system: ABA 107292
Method in brief: (§1)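 Growth inhibition endpoint, read visually after 16-20 h at 35° C in ambient air. Cation-adjusted Mueller-Hinton broth, inoculum 5·10^5 CFU/mL, CLSI M7-A7 protocol.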

[2] = test system: ABA 19606
Method in brief: as §1

[3] = test system: ABA UFR151
Method in brief: as §1

[4] = test system: ABA UFR152
Method in brief: as §1

[5] = test system: ABA UFR153
Method in brief: as §1

[6] = test system: ABA UFR156
Method in brief: as §1

[7] = test system: ABA UFR157
Method in brief: as §1

[8] = test system: ABA UFR158
Method in brief: as §1

[9] = test system: ABA UFR159
Method in brief: as §1

[10] = test system: ABA UFR160
Method in brief: as §1

[11] = test system: ABA UFR161
Method in brief: as §1

- MIC [1]: > 32 µg/mL
- MIC [2]: > 32 µg/mL
- MIC [3]: > 32 µg/mL
- MIC [4]: > 32 µg/mL
- MIC [5]: > 32 µg/mL
- MIC [6]: > 32 µg/mL
- MIC [7]: > 32 µg/mL
- MIC [8]: > 32 µg/mL
- MIC [9]: > 32 µg/mL
- MIC [10]: > 32 µg/mL
- MIC [11]: > 32 µg/mL
SMILES: O=C1N2CC(n3cccn3)=C[C@H](C2)N1OS(=O)(=O)[O-].[Na+] [Example 15, sodium [(5R)-7-oxo-3-pyrazol-1-yl-1,6-diazabicyclo[3.2.1]oct-3-en-6-yl] sulfate]
